Results from patent US9073903B2, “Imidazole-2,4-dione inhibitors of casein kinase 1” (Jasco Pharmaceuticals, LLC, priority 2010, dated 2015).
Like-named read-outs stand apart in the source and are kept apart here.

What was measured:
Assay type in all cases: cell-based
Jurkat = assay: Cell proliferation study Jurkat
Ovcar-3 cells = assay: Inhibition of Ovcar 3 cells (MTS cell proliferation); conditions: for OD value 1 / OD value 2: 490 nm; for OD value 1 / OD value 2 / inhibition at 0.4 µM / inhibition at 0.8 µM / inhibition at 1.6 µM / inhibition at 3.2 µM / inhibition at 6.25 µM / inhibition at 12.5 µM / inhibition at 25 µM / inhibition at 50 µM / inhibition at 100 µM: 72 h; for inhibition at 0.4 µM / inhibition at 0.8 µM / inhibition at 1.6 µM / inhibition at 3.2 µM / inhibition at 6.25 µM / inhibition at 12.5 µM / inhibition at 25 µM / inhibition at 50 µM / inhibition at 100 µM / IC50: Homo sapiens, OVCAR-3
Procedure: Inhibition of Ovcar 3 Cells Cells: Ovcar-3 cells, ATCC Passage 4, Mycoplasma free. Medium: RPMI-1640 Medium (GIBCO Cat #22400121) supplemented with 10% fetal bovine serum (Hyclone Cat #SH30396.03). Seeding: 3,000 cells/well (100 uL) were seeded into 96-wells plate, incubated overnight at 37° C. in a humidified, 5% CO2 atmosphere. Treatment: Test compounds and Gemcitabine were prepared in a serial dilution (1:2) by culture medium. Fifty microliters (50 uL) of serially diluted solutions were added into each well. The final concentrations of the positive control and test compounds were shown in the graphs. The cells were incubated for 72 hours after addition of the test compounds. MTS: 15 uL of MTS solution (Promega Cat #G5430) was added into each well and incubated with cells for 4 hours at 37° C. in a humidified, 5% CO2 atmosphere. Measurement: Absorbance at 490 nm was measured using MD Spectramax Plus384 spectrophotometer. The regression curves were calculated by the GraphPad Prism 5 using “log(inhibitor) vs response—variable slope”.

DU145 cells = assay: Inhibition of DU145 cells (MTS cell proliferation); conditions: for inhibition at 0.4 µM / inhibition at 0.8 µM / inhibition at 1.6 µM / inhibition at 3.2 µM / inhibition at 6.25 µM / inhibition at 12.5 µM / inhibition at 25 µM / inhibition at 50 µM / inhibition at 100 µM / IC50: Homo sapiens, DU-145; for inhibition at 0.4 µM: 0.400 uM; for inhibition at 0.8 µM: 0.800 uM; for inhibition at 1.6 µM: 1.600 uM; for inhibition at 3.2 µM: 3.200 uM; for inhibition at 6.25 µM: 6.250 uM; for inhibition at 12.5 µM: 12.500 uM
Procedure: Inhibition of DU145 Cells Cells: DU145 cells, ATCC Passage unknown, Mycoplasma free. Medium: DMEM Medium (GIBCO Cat #11995073) supplemented with 10% fetal bovine serum (Hyclone Cat #SH30396.03). Seeding: 750 cells/well (100 μL) into 96-wells plate, incubated overnight at 37° C. in a humidified, 5% CO2 atmosphere. Treatment: Test compounds and Gemcitabine were prepared in a serial dilution (1:2) by culture medium. Fifty microliters (50 uL) of serially diluted solutions were added into each well. The final concentrations of the positive control and test compounds were shown in the graphs. The cells were incubated for 72 hours after addition of the test compounds. MTS: 15 uL of MTS solution (Promega Cat #G5430) was added into each well and incubated with cells for 4 hours at 37° C. in a humidified, 5% CO2 atmosphere. Measurement: Absorbance at 490 nm was measured using MD Spectramax Plus384 spectrophotometer. The regression curves were calculated by the GraphPad Prism 5 using “log(inhibitor) vs response—variable slope”.

[1] = 72 hours, replicate 1, read-out: % of inhibition 1
[2] = 72 hours, replicate 2, read-out: % of inhibition 2

SMILES: Nc1ccn([C@@H]2O[C@H](CO)[C@@H](O)C2(F)F)c(=O)n1 [Gemcitabine]
- Jurkat‡ % at 10 μM (Jurkat): 3.2%
- OD value 1 (Ovcar-3 cells; 0.400 μM, replicate 1): 0.591
- OD value 2 (Ovcar-3 cells; 0.400 μM, replicate 2): 0.575
- OD value 1 (Ovcar-3 cells; 0.800 μM, replicate 1): 0.490
- OD value 2 (Ovcar-3 cells; 0.800 μM, replicate 2): 0.460
- OD value 1 (Ovcar-3 cells; 1.600 μM, replicate 1): 0.440
- OD value 2 (Ovcar-3 cells; 1.600 μM, replicate 2): 0.453
- OD value 1 (Ovcar-3 cells; 3.200 μM, replicate 1): 0.411
- OD value 2 (Ovcar-3 cells; 3.200 μM, replicate 2): 0.432
- OD value 1 (Ovcar-3 cells; 6.250 μM, replicate 1): 0.363
- OD value 2 (Ovcar-3 cells; 6.250 μM, replicate 2): 0.388
- OD value 1 (Ovcar-3 cells; 12.500 μM, replicate 1): 0.257
- OD value 2 (Ovcar-3 cells; 12.500 μM, replicate 2): 0.234
- OD value 1 (Ovcar-3 cells; 25.000 μM, replicate 1): 0.040
- OD value 2 (Ovcar-3 cells; 25.000 μM, replicate 2): 0.009
- OD value 1 (Ovcar-3 cells; 50.000 μM, replicate 1): 0.020
- OD value 2 (Ovcar-3 cells; 50.000 μM, replicate 2): 0.010
- OD value 1 (Ovcar-3 cells; 100.000 μM, replicate 1): 0.012
- OD value 2 (Ovcar-3 cells; 100.000 μM, replicate 2): 0.011
- inhibition at 0.4 µM (Ovcar-3 cells; 0.400 μM, replicate 1, read-out: % of inhibition 1): 1.5%
- inhibition at 0.4 µM (Ovcar-3 cells; 0.400 μM, replicate 2, read-out: % of inhibition 2): -4.93%
- inhibition at 0.8 µM (Ovcar-3 cells; 0.800 μM, replicate 1, read-out: % of inhibition 1): 18.3%
- inhibition at 0.8 µM (Ovcar-3 cells; 0.800 μM, replicate 2, read-out: % of inhibition 2): 16.1%
- inhibition at 1.6 µM (Ovcar-3 cells; 1.600 μM, replicate 1, read-out: % of inhibition 1): 26.6%
- inhibition at 1.6 µM (Ovcar-3 cells; 1.600 μM, replicate 2, read-out: % of inhibition 2): 17.4%
- inhibition at 3.2 µM (Ovcar-3 cells; 3.200 μM, replicate 1, read-out: % of inhibition 1): 31.5%
- inhibition at 3.2 µM (Ovcar-3 cells; 3.200 μM, replicate 2, read-out: % of inhibition 2): 21.2%
- inhibition at 6.25 µM (Ovcar-3 cells; 6.250 μM, replicate 1, read-out: % of inhibition 1): 39.5%
- inhibition at 6.25 µM (Ovcar-3 cells; 6.250 μM, replicate 2, read-out: % of inhibition 2): 29.2%
- inhibition at 12.5 µM (Ovcar-3 cells; 12.500 μM, replicate 1, read-out: % of inhibition 1): 57.2%
- inhibition at 12.5 µM (Ovcar-3 cells; 12.500 μM, replicate 2, read-out: % of inhibition 2): 57.3%
- inhibition at 25 µM (Ovcar-3 cells; 25.000 μM, replicate 1, read-out: % of inhibition 1): 93.4%
- inhibition at 25 µM (Ovcar-3 cells; 25.000 μM, replicate 2, read-out: % of inhibition 2): 98.4%
- inhibition at 50 µM (Ovcar-3 cells; 50.000 μM, replicate 1, read-out: % of inhibition 1): 96.7%
- inhibition at 50 µM (Ovcar-3 cells; 50.000 μM, replicate 2, read-out: % of inhibition 2): 98.1%
- inhibition at 100 µM (Ovcar-3 cells; 100.000 μM, replicate 1, read-out: % of inhibition 1): 98%
- inhibition at 100 µM (Ovcar-3 cells; 100.000 μM, replicate 2, read-out: % of inhibition 2): 98%
- IC50 (Ovcar-3 cells; Table 18, read-out: OVCAR-3* 50% inhibition concentration): 11.2 µM
- IC50 (Ovcar-3 cells; Table 26, Ovcar3, 72 hours, read-out: 50% viability conc.): 11.2 µM
- IC50 (Ovcar-3 cells; Table 26, Ovcar3, 72 hours, read-out: IC50): 9.87 µM
- Maximal inhibition % (Ovcar-3 cells; Table 26, Ovcar3, 72 hours): 98%
- inhibition at 0.4 µM (DU145 cells; [1]): 17.4%
- inhibition at 0.4 µM (DU145 cells; [2]): 15.6%
- inhibition at 0.8 µM (DU145 cells; [1]): 35.2%
- inhibition at 0.8 µM (DU145 cells; [2]): 32.9%
- inhibition at 1.6 µM (DU145 cells; [1]): 59%
- inhibition at 1.6 µM (DU145 cells; [2]): 54.3%
- inhibition at 3.2 µM (DU145 cells; [1]): 95.5%
- inhibition at 3.2 µM (DU145 cells; [2]): 96.2%
- inhibition at 6.25 µM (DU145 cells; [1]): 96.8%
- inhibition at 6.25 µM (DU145 cells; [2]): 96.2%
- inhibition at 12.5 µM (DU145 cells; [1]): 96.6%
- inhibition at 12.5 µM (DU145 cells; [2]): 97.3%
- inhibition at 25 µM (DU145 cells; [1]): 97%
- inhibition at 25 µM (DU145 cells; [2]): 96.2%
- inhibition at 50 µM (DU145 cells; [1]): 97.4%
- inhibition at 50 µM (DU145 cells; [2]): 98.9%
- inhibition at 100 µM (DU145 cells; [1]): 97.9%
- inhibition at 100 µM (DU145 cells; [2]): 97.2%
- IC50 (DU145 cells; Table 17, read-out: DU145* 50% inhibition concentration): 1.28 µM
- IC50 (DU145 cells; Table 26, DU145, 72 hours, read-out: 50% viability conc.): 1.28 µM
- IC50 (DU145 cells; Table 26, DU145, 72 hours, read-out: IC50): 1.17 µM
- Maximal inhibition % (DU145 cells; Table 26, DU145, 72 hours): 97.55%
